The values below come from US20130210057A1, “USE OF LABEL-FREE BIOSENSORS TO UNDERSTAND AND IDENTIFY TREATMENT FOR CANCER” (CORNING INCORPORATED, priority 2012, published 2013).

Common to all, as to assay type: cell-based, human
Test [1] relates to HCT116-PTEN Null cell line. Kind of test: Label-free RWG biosensor DMR assay. From the text: (§1) EPIC® beta version wavelength interrogation system (Corning Inc., NY) was used for whole cell sensing. This system consists of a temperature-control unit, an optical detection unit, and an on-board liquid handling unit with robotics. The detection unit is centered on integrated fiber optics, and enables kinetic measures of cellular responses with a time interval of ˜15 sec. Also EPIC® commercial systems were used, with a liquid handler accessory attached to EPIC® reader system. Also, an Epic® RWG imager can be used.
(§2) The resonant waveguide grating (RWG) biosensor is capable of detecting minute changes in local index of refraction near the sensor surface and the waveguide thin film having gratings provide a cell culture surface. Since the local index of refraction within a cell is a function of density and its distribution of biomass (e.g., proteins, molecular complexes), the biosensor exploits its evanescent wave to non-invasively detect ligand-induced Dynamic Mass Redistribution (DMR) in native cells. When a cell is stimulated, it responds. That response is a redistribution of biomass in the cell. Upon stimulation, proteins, protein complexes, and/or organelles in the cells move. The evanescent wave extends into the cells and exponentially decays over distance, leading to a characteristic sensing depth of ˜150 nm. Any optical response mediated through receptor activation only represents an average over the portion of the cell that the evanescent wave is sampling. The aggregation of many cellular events downstream to the receptor activation leads to a DMR signal having characteristic kinetics and amplitudes.
(§3) All assays were carried out at a controlled temperature (28° C.). At least two independent sets of experiments, each with at least three replicates, were performed.

For test [2], the system named is HCT116 parental cell line. In words: Label-free RWG biosensor DMR assay. Conditions: HCT116 parental.
From the text: as §1, §2, §3

Test [3] deals with HCT116 PTEN null cells. Kind of test: Calcium flux assay (FLUO-4, FDSS/FLIPR). Conditions: small molecule agonists 10 micromolar, peptide and lipid agonists 1 micromolar. The source says:
(§4) To screen endogenous receptors and their coupled signaling pathways, we first assembled a GPCR agonist focused library (Table 1). The library consists of 120 GPCR agonists covering over 150 known GPCRs, based on their known pharmacology including polypharmacology. For small molecule chemical agonists, the dose used was 10 micromolar. For peptide agonists, the dose used was 1 micromolar. For lipid agonists, the dose used was also 1 micromolar. For both peptides and lipids, these agonists were suspended in a solution containing 0.05% bovine […] to increase their stability.

Test [4] concerns HCT116 parental cells. In words: Calcium flux assay (FLUO-4, FDSS/FLIPR). Conditions: small molecule agonists 10 micromolar, peptide and lipid agonists 1 micromolar.
From the text: as §4

Test [5] relates to Akt, ERK1/2, EGFR, c-Src, STAT3 phosphorylation in PTEN null cells. In words: Western blot analysis of key signaling proteins in GPCR signaling. The conditions noted are these: serum-starved, 5 min treatment; for Akt activation (phospho-Akt): SFLLR, SLIGKV 1 μM, S1P, LPA 2.5 μM.
Test [6] has as its system Akt, ERK1/2, EGFR, c-Src, STAT3 phosphorylation in HCT116 parental cells. The description is as above. Conditions: serum-starved, 5 min treatment; for Akt activation (phospho-Akt): SFLLR, SLIGKV 1 μM, S1P, LPA 2.5 μM.

Ends that are not written are not given here.

In the case of `Nc1ncnc2c1ncn2[C@@H]1O[C@H](COP(=O)(O)OP(=O)(O)OP(=O)(O)O)[C@@H](O)[C@H]1O` [ATP], the “agonist DMR in PTEN deleted cell line compared to parental cell line (sensitivity to PTEN deletion)” value in test [1] (10 μM agonist (EGF, IGF1 1 μM)) is on record as “dramatically different”. Also, the “receptor / signaling pathway activated (pathway deconvolution of DMR with toxins)” value in test [1] (HCT116-PTEN Null, 10 μM agonist) was “activates multiple GPCRs and mediates signaling via multiple G proteins”; in test [2] (10 μM agonist) it was “activates multiple GPCRs and mediates signaling via multiple G proteins”. The “Ca^2+ mobilization (fold increase in fluorescence, FLIPR)” value in test [3] and in test [4] was “robust Ca^2+ mobilization” throughout.
Consider `CCCCCCCCCCCCC/C=C/[C@@H](O)[C@@H](N)COP(=O)(O)O` [S1P, sphingosine-1-phosphate], for which the EGFR activation entry in test [5] is “did not activate”. For the same compound, the “Akt activation (phospho-Akt)” value in test [5] and in test [6] was “did not activate” each time.
In the case of `O=c1ccn([C@@H]2O[C@H](COP(=O)(O)OP(=O)(O)O)[C@@H](O)[C@H]2O)c(=O)[nH]1` [UDP], the “Ca^2+ mobilization (fold increase in fluorescence, FLIPR)” value in test [3] and in test [4] was “robust Ca^2+ mobilization” in each case.
Turning to SFLLR-amide, the “level of phosphorylated STAT3” value in test [5] and in test [6] was “significantly increased” each time. Also, the “Akt activation (phospho-Akt)” value in test [5] and in test [6] was “did not activate” each time. Besides, the “agonist DMR in PTEN deleted cell line compared to parental cell line (sensitivity to PTEN deletion)” value in test [1] (10 μM agonist (EGF, IGF1 1 μM)) is on record as “distinct characteristics”. For the same compound, the “agonist-induced DMR signal” value in test [1] (HCT116-PTEN Null, untreated, 10 μM agonist (EGF, IGF1 1 μM)) is recorded as “robust DMR signal”; in test [2] (untreated, 10 μM agonist (EGF, IGF1 1 μM)), “robust DMR signal”. In addition, the “potency to trigger DMR, PTEN null vs parental” value in test [1] (dose response, early P-DMR or late P-DMR (50 min poststimulation) amplitudes) is given as “almost identical”. For the same compound, the “efficacy to trigger DMR, PTEN null vs parental” value in test [1] (dose response, early or late P-DMR event) was “higher efficacy”. Further, the “Ca^2+ mobilization (fold increase in fluorescence, FLIPR)” value in test [3] and in test [4] was “robust Ca^2+ mobilization” each time.
For the compound SLIGKV-NH2, the “Akt activation (phospho-Akt)” value in test [5] and in test [6] was “did not activate” each time. The “Ca^2+ mobilization (fold increase in fluorescence, FLIPR)” value in test [3] and in test [4] was “robust Ca^2+ mobilization” throughout.
